For 23 compounds, IC50 results are on record in patent US10239873B2, “7-azaindole or 4,7-diazaindole derivatives as IKKϵ epsilon and TBK1 inhibitor and pharmaceutical composition comprising same” (GREEN CROSS CORPORATION, priority 2015, dated 2019).

A value given as a limit tells only on which side of the number the result lay.

The target in this assay is T1, TBK1 (Homo sapiens, UniProt Q9UHD2).
T1 construct: purchased Promega (Invitrogen is also named in the same bracket) V4158; PR8031B; V3991 (not assigned to the two kinases)
T1 sequence (Q9UHD2 1-729): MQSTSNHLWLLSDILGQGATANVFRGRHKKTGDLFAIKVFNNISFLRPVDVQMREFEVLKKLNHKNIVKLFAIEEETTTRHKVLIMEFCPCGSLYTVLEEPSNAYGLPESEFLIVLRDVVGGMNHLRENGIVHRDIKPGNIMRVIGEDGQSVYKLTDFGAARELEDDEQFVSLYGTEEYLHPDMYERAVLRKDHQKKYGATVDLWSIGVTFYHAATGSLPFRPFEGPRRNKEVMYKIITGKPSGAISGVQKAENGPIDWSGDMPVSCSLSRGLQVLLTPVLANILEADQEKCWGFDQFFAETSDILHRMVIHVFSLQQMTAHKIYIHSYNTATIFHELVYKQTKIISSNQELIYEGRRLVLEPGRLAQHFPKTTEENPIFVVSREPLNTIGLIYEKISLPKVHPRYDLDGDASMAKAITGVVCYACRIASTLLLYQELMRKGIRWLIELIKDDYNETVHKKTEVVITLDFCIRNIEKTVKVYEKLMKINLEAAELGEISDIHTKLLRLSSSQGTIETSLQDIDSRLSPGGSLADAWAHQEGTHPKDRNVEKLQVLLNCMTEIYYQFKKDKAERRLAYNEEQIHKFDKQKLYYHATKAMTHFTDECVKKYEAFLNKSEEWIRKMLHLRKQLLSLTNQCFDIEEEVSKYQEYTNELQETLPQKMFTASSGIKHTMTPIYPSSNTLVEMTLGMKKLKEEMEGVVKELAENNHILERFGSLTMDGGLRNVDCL
Briefly: ADP-Glo Kinase Assay, inhibition activity on TBK1. The assay is classed as biochemical. In a few lines:
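Kinase activity measured with the ADP-Glo luminescent ADP-detection kit per manufacturer's protocol, using IKKε or TBK1 kinase enzyme systems. Reaction buffer: 40 mM Tris (pH 7.5), 20 mM MgCl2, 0.1 mg/mL BSA; luminescence read on a luminometer.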
As to `COc1ccc(-c2cnc3[nH]cc(C4=CCN(C(=O)N(C)C5CCCC5)CC4)c3c2)cc1OC` [Example 220, N-cyclopentyl-4-(5-(3,4-dimethoxyphenyl)-1H-pyrrolo[2,3-b]pyridin-3-yl)-N-methyl-5,6-dihydropyridine-1(2H)-carboxamide], the IC50 came out at 1.3 µM.

Take `Cc1[nH]c2ncc(-c3ccc(S(N)(=O)=O)cc3)cc2c1C1=CCN(C(=O)NC2CCCC2)CC1` [Example 221, N-cyclopentyl-4-(2-methyl-5-(4-sulfamoylphenyl)-1H-pyrrolo[2,3-b]pyridin-3-yl)-5,6-dihydropyridine-1(2H)-carboxamide]: half-maximal inhibition (IC50) required 2 µM.

With `CNS(=O)(=O)c1ccc(-c2cnc3[nH]c(C)c(C4=CCN(C(=O)NC5CCCC5)CC4)c3c2)cc1` [Example 222, N-cyclopentyl-4-(2-methyl-5-(4-(N-methylsulfamoyl)phenyl)-1H-pyrrolo[2,3-b]pyridin-3-yl)-5,6-dihydropyridine-1(2H)-carboxamide], the IC50 is 6.8 µM.

In turn, `Cc1[nH]c2ncc(-c3ccc(C(=O)N4CCOCC4)cc3)cc2c1C1=CCN(C(=O)NC2CCCC2)CC1` [Example 223, N-cyclopentyl-4-(2-methyl-5-(4-(morpholine-4-carbonyl)phenyl)-1H-pyrrolo[2,3-b]pyridin-3-yl)-5,6-dihydropyridine-1(2H)-carboxamide] registered an IC50 of 1.6 µM.

`COc1ccc(-c2cc3c(C4=CCN(C(=O)OC(C)(C)C)CC4)c[nH]c3nc2N)cc1OC` [Example 224, tert-butyl 4-(6-amino-5-(3,4-dimethoxyphenyl)-1H-pyrrolo[2,3-b]pyridin-3-yl)-5,6-dihydropyridine-1(2H)-carboxylate]: the IC50 is above 10 µM.

`CC(C)(C)OC(=O)N1CC=C(c2c[nH]c3nc(N)c(-c4ccc(CN5CCOCC5)s4)cc23)CC1` [Example 225, tert-butyl 4-(6-amino-5-(5-(morpholinomethyl)thiophen-2-yl)-1H-pyrrolo[2,3-b]pyridin-3-yl)-5,6-dihydropyridine-1(2H)-carboxylate] had a half-maximal inhibitory concentration (IC50) above 10 µM.

`COc1ccc(-c2cc3c(C4=CCN(C(=O)NC5CCCC5)CC4)c[nH]c3nc2N)cc1OC` [Example 226, 4-(6-amino-5-(3,4-dimethoxyphenyl)-1H-pyrrolo[2,3-b]pyridin-3-yl)-N-cyclopentyl-5,6-dihydropyridine-1(2H)-carboxamide] had a half-maximal inhibitory concentration (IC50) above 10 µM.

`Nc1nc2[nH]cc(C3=CCN(C(=O)NC4CCCC4)CC3)c2cc1-c1ccc(CN2CCOCC2)s1` [Example 227, 4-(6-amino-5-(5-(morpholinomethyl)thiophen-2-yl)-1H-pyrrolo[2,3-b]pyridin-3-yl)-N-cyclopentyl-5,6-dihydropyridine-1(2H)-carboxamide] returned a half-inhibitory concentration (IC50) of 1.5 µM.

Turning to `O=C(NC1CCCC1)N1CC=C(c2c[nH]c3ncc(-c4ccc(CN5CCOCC5)s4)nc23)CC1` [Example 229, N-cyclopentyl-4-(2-(5-(morpholinomethyl)thiophen-2-yl)-5H-pyrrolo[2,3-b]pyrazin-7-yl)-5,6-dihydropyridine-1(2H)-carboxamide], the IC50 was 0.066 µM.

The compound `COc1ccc(-c2cnc3[nH]cc(C4=CCN(C(=O)OC(C)(C)C)CC4)c3n2)cc1OC` [Example 230, tert-butyl 4-(2-(3,4-dimethoxyphenyl)-5H-pyrrolo[2,3-b]pyrazin-7-yl)-5,6-dihydropyridine-1(2H)-carboxylate] registered a half-maximal inhibitory concentration (IC50) of 0.32 µM.

`O=C(c1cccs1)N1CC=C(c2c[nH]c3ncc(-c4ccc(CN5CCOCC5)s4)nc23)CC1` [Example 233, (4-(2-(5-(morpholinomethyl)thiophen-2-yl)-5H-pyrrolo[2,3-b]pyrazin-7-yl)-5,6-dihydropyridin-1(2H)-yl)(thiophen-2-yl)methanone]: 0.04 µM corresponded to half-maximal inhibition (IC50).

`CC(C)(C)OC(=O)N1CC=C(c2c[nH]c3ncc(-c4ccc(CN5CCOCC5)s4)nc23)CC1` [Example 234, tert-butyl 4-(2-(5-(morpholinomethyl)thiophen-2-yl)-5H-pyrrolo[2,3-b]pyrazin-7-yl)-5,6-dihydropyridine-1(2H)-carboxylate] yielded an IC50 of 0.47 µM.

With `COc1ccc(-c2cnc3[nH]cc(C4CCCN(C(=O)OC(C)(C)C)C4)c3c2)cc1OC` (centres unmarked) [Example 236, tert-butyl 3-(5-(3,4-dimethoxyphenyl)-1H-pyrrolo[2,3-b]pyridin-3-yl)piperidine-1-carboxylate], the 50% inhibitory concentration (IC50) was above 10 µM.

As to `COc1ccc(-c2cnc3[nH]cc(C4=CCN(C(=O)OC(C)(C)C)CC4)c3c2)cc1OC` [Example 239, tert-butyl 4-(5-(3,4-dimethoxyphenyl)-1H-pyrrolo[2,3-b]pyridin-3-yl)-5,6-dihydropyridine-1(2H)-carboxylate], the half-inhibitory concentration (IC50) amounted to 0.3 µM.

Regarding `CC(=O)Nc1cccc(-c2cnc3[nH]cc(C4=CCN(C(=O)OC(C)(C)C)CC4)c3c2)c1` [Example 240, tert-butyl 4-(5-(3-acetamidophenyl)-1H-pyrrolo[2,3-b]pyridin-3-yl)-5,6-dihydropyridine-1(2H)-carboxylate], the IC50 came out at 0.2 µM.

With `CC(=O)Nc1ccc(-c2cnc3[nH]cc(C4=CCN(C(=O)OC(C)(C)C)CC4)c3c2)cc1` [Example 241, tert-butyl 4-(5-(4-acetamidophenyl)-1H-pyrrolo[2,3-b]pyridin-3-yl)-5,6-dihydropyridine-1(2H)-carboxylate], inhibition was half-maximal at 0.17 µM (IC50).

`CCCOc1cccc(-c2cnc3[nH]cc(C4=CCN(C(=O)OC(C)(C)C)CC4)c3c2)c1` [Example 242, tert-butyl 4-(5-(3-propoxyphenyl)-1H-pyrrolo[2,3-b]pyridin-3-yl)-5,6-dihydropyridine-1(2H)-carboxylate]: 1.3 µM corresponded to half-maximal inhibition (IC50).

The compound `CCCOc1ccc(-c2cnc3[nH]cc(C4=CCN(C(=O)OC(C)(C)C)CC4)c3c2)cc1` [Example 243, tert-butyl 4-(5-(4-propoxyphenyl)-1H-pyrrolo[2,3-b]pyridin-3-yl)-5,6-dihydropyridine-1(2H)-carboxylate] registered an IC50 of 1.7 µM.

Consider `COc1ccccc1-c1cnc2[nH]cc(C3=CCN(C(=O)OC(C)(C)C)CC3)c2c1` [Example 244, tert-butyl 4-(5-(2-methoxyphenyl)-1H-pyrrolo[2,3-b]pyridin-3-yl)-5,6-dihydropyridine-1(2H)-carboxylate], for which the IC50 turned out to be 1.8 µM.

Take `COc1ccc(-c2cnc3[nH]cc(C4=CN(C(=O)OC(C)(C)C)CCC4)c3c2)cc1OC` [Example 245, tert-butyl 5-(5-(3,4-dimethoxyphenyl)-1H-pyrrolo[2,3-b]pyridin-3-yl)-3,4-dihydropyridine-1(2H)-carboxylate]: the IC50 worked out at 8.8 µM.

The compound `COc1ccc(-c2cnc3[nH]cc(-c4ccc(CC(=O)NC5CCCC5)cc4)c3c2)cc1OC` [Example 246, N-cyclopentyl-2-(4-(5-(3,4-dimethoxyphenyl)-1H-pyrrolo[2,3-b]pyridin-3-yl)phenyl)acetamide 2,2,2-trifluoroacetate] displayed a half-maximal inhibitory concentration (IC50) of 4.1 µM.

Regarding `O=C(O)Cc1ccc(-c2c[nH]c3ncc(-c4ccc(CN5CCOCC5)s4)cc23)cc1` [Example 247, 2-(4-(5-(5-(morpholinomethyl)thiophen-2-yl)-1H-pyrrolo[2,3-b]pyridin-3-yl)phenyl)acetic acid], 1.3 µM corresponded to half-maximal inhibition (IC50).

As for `O=C(Cc1ccc(-c2c[nH]c3ncc(-c4ccc(CN5CCOCC5)s4)cc23)cc1)NC1CCCC1` [Example 248, N-cyclopentyl-2-(4-(5-(5-(morpholinomethyl)thiophen-2-yl)-1H-pyrrolo[2,3-b]pyridin-3-yl)phenyl)acetamide 2,2,2-trifluoroacetate], the IC50 stood at 2.1 µM.
